The nature of data set [1]: Solubility of compound in water. The format is physicochemical. The following applies: buffer.
Data set [2] deals with HepG2. As to the kind of experiment: Cytotoxicity against human HepG2 cells assessed as growth inhibition after 72 hrs by MTT assay. The following applies: HepG2, 72 h. Background: Formazan colour is commonly taken as a measure of viable cells.
A short description of data set [3]: Cytotoxicity against human MIAPaCa2 cells assessed as growth inhibition after 72 hrs by MTT assay. The following applies: MIA PaCa-2, 72 h.
The nature of data set [4]: Cytotoxicity against human HCC827 cells assessed as growth inhibition after 72 hrs by MTT assay. As to conditions: HCC827, 72 h.
In data set [5] the test system is AGS. As to the kind of experiment: Cytotoxicity against human AGS cells assessed as growth inhibition after 72 hrs by MTT assay.
Data set [6] concerns A549. As to the kind of experiment: Cytotoxicity against human A549 cells assessed as growth inhibition after 72 hrs by MTT assay. The following applies: A549, 72 h.
The test system of data set [7] is HeLa. The data set can be described thus: Cytotoxicity against human HeLa cells assessed as growth inhibition after 72 hrs by MTT assay.
Data set [8] deals with HT-29. The data set can be described thus: Cytotoxicity against human HT-29 cells assessed as growth inhibition after 72 hrs by MTT assay. The following applies: HT-29, 72 h.
The target of data set [9] is Hepatocyte growth factor receptor (Homo sapiens, UniProt P08581). The data set can be described thus: Inhibition of c-MET (unknown origin) by caliper mobility shift assay.
Hepatocyte growth factor receptor, sequence (P08581 whole entry): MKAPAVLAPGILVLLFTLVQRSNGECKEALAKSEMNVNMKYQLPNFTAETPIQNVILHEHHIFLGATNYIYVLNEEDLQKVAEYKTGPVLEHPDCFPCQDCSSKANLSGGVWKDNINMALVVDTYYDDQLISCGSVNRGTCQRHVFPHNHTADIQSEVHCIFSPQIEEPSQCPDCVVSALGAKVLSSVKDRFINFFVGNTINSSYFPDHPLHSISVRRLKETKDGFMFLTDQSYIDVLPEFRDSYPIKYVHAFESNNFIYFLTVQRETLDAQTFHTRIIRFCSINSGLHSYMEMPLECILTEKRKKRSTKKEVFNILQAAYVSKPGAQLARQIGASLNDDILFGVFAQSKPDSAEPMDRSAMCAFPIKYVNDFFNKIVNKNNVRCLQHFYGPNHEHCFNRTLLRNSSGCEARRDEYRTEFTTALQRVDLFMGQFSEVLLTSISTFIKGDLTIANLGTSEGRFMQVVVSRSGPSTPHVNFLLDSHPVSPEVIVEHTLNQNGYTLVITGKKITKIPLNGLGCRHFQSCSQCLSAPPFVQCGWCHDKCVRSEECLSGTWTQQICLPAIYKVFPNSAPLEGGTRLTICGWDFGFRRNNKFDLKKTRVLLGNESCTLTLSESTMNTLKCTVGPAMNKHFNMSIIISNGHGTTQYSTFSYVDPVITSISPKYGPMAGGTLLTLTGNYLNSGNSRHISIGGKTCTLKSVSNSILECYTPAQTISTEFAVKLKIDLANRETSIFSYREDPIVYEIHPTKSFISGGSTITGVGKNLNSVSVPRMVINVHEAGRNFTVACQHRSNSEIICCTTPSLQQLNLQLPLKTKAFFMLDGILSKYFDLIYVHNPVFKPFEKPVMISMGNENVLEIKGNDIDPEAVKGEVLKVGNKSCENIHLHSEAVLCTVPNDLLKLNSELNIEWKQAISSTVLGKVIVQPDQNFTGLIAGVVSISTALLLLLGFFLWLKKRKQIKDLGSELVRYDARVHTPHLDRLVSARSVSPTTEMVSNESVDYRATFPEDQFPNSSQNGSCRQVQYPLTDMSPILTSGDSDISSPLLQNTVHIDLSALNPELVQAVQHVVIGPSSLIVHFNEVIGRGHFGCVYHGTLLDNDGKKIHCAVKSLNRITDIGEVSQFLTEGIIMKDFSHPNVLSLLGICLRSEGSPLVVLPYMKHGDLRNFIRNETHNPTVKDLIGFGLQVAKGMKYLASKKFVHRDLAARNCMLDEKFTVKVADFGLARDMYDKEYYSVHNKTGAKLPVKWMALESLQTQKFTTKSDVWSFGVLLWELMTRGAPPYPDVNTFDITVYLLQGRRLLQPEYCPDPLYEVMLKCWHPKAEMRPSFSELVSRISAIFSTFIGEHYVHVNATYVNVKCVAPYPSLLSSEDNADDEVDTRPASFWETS
The test system of data set [10] is HCC827. The data set can be described thus: Antimigratory activity against human HCC827 cells at 2.5 to 10 uM after 24 hrs by crystal violet staining based transwell chamber assay. The format is functional, cell-based.

Activity calls are given as the source filed them. No cut-off for these calls is given here.

One may read the IC50 as the concentration that inhibits the measured activity by half. As to `COC(=O)COc1ccc(C(=O)C2=C(O)[C@]3(CC=C(C)C)C[C@@H](C/C=C(\C)CCC=C(C)C)[C@](C)(CCC=C(C)C)[C@](CC=C(C)C)(C2=O)C3=O)cc1OCC(=O)O`, in data set [1], the solubility entry was “soluble”. Also, the IC50 in [2], in data set [3], in [4], in data set [5], in data set [6] and in [7] was greater than 20 µM throughout. For the same compound, in [8], the IC50 was greater than 20 µM.

Regarding `CC(=O)Oc1ccc(C(=O)C2=C(O)[C@]3(CC=C(C)C)C[C@@H](C/C=C(\C)CCC=C(C)C)[C@](C)(CCC=C(C)C)[C@](CC=C(C)C)(C2=O)C3=O)cc1OC(C)=O`, the IC50 in data set [2] was greater than 20 µM; in data set [3], greater than 20 µM; in data set [4], greater than 20 µM; in [5], 15.7 µM; in data set [6], 16.6 µM; in [7], 13.3 µM. Besides, the 50% inhibitory concentration (IC50) in data set [8] came out at 12.2 µM.

With `CC(C)=CCC/C(C)=C/C[C@@H]1C[C@]2(CC=C(C)C)C(=O)[C@@](CC=C(C)C)(C(=O)C(C(=O)c3ccc(O)c(O)c3)=C2O)[C@@]1(C)CCC=C(C)C` [OBLONGIFOLIN C], the half-maximal inhibitory concentration (IC50) in [9] was 7.77 µM; in [2], 13 µM; in data set [3], 4.46 µM; in data set [4], 9.2 µM; in [5], 4.58 µM; in data set [6], 4.29 µM. Further, the IC50 was determined as 5.83 µM in [7] and 6.74 µM in [8].

In the case of `CC(C)=CCC/C(C)=C/C[C@@H]1C[C@@]2(CC=C(C)C)C(=O)C3=C(OC4C=C(O)C(=O)C=C4C3=O)[C@](CC=C(C)C)(C2=O)[C@@]1(C)CCC=C(C)C` (some centres not stated), the IC50 in [2] worked out at 3.47 µM; in data set [3], 2.78 µM; in [4], 4.56 µM; in data set [5] it was 7.72 µM; in data set [6], 9.84 µM; in data set [7], 6.82 µM. For the same compound, the IC50 in data set [8] amounted to 9.22 µM. In data set [10], the result was Active.

Turning to `C[C@@H](Oc1cc(-c2cnn(C3CCNCC3)c2)cnc1N)c1c(Cl)ccc(F)c1Cl` [CRIZOTINIB], the 50% inhibitory concentration (IC50) stood at 3.7 µM in data set [2], 7.16 µM in data set [3] and 7.25 µM in data set [4].

As for `CC(C)=CCC/C(C)=C/C[C@@H]1C[C@]2(CC=C(C)C)C(=O)[C@@](CC=C(C)C)(C(=O)C(Cc3ccc(O)c(O)c3)=C2O)[C@@]1(C)CCC=C(C)C`, the IC50 in data set [9], in [2], in [3], in data set [4], in data set [5] and in [6] was greater than 20 µM throughout. The IC50 in [7] and in [8] was greater than 20 µM each time.

As for `CC(C)=CCC/C(C)=C/C[C@@H]1C[C@]2(CC=C(C)C)C(=O)[C@@](CC=C(C)C)(C(=O)C(C(=O)c3ccc(O)c(OC(=O)CCCC[C@@H]4SCC5NC(=O)NC54)c3)=C2O)[C@@]1(C)CCC=C(C)C` (some centres not stated), the half-inhibitory concentration (IC50) amounted to 14.6 µM in [2]; 11.7 µM in data set [3]; 12.1 µM in data set [4]; 12.2 µM in [5]; 11.3 µM in [6]; 12.7 µM in data set [7]. Besides, the 50% inhibitory concentration (IC50) in [8] worked out at 18.2 µM.

On to `CC(=O)Oc1cc(C(=O)C2=C(O)[C@]3(CC=C(C)C)C[C@@H](C/C=C(\C)CCC=C(C)C)[C@](C)(CCC=C(C)C)[C@](CC=C(C)C)(C2=O)C3=O)ccc1O`, for which the IC50 is greater than 20 µM in [2]; 15.4 µM in [3]; greater than 20 µM in data set [4]; 8.09 µM in [5]; 7.66 µM in data set [6]; 8.97 µM in data set [7]. For the same compound, the IC50 in [8] came to 10.2 µM.

`CC(C)=CCC/C(C)=C/C[C@@H]1C[C@]2(CC=C(C)C)C(=O)[C@@](CC=C(C)C)(C(=O)C(OC(=O)c3ccc(O)c(O)c3)=C2O)[C@@]1(C)CCC=C(C)C`: the IC50 in data set [2] was greater than 20 µM; in data set [3], greater than 20 µM; in [4] it was greater than 20 µM; in [5] it was 10.2 µM; in data set [6], 13.1 µM; in data set [7], 15.1 µM. The half-maximal inhibitory concentration (IC50) in data set [8] was 16.3 µM.

Regarding `COC(=O)COc1cc(C(=O)C2=C(O)[C@]3(CC=C(C)C)C[C@@H](C/C=C(\C)CCC=C(C)C)[C@](C)(CCC=C(C)C)[C@](CC=C(C)C)(C2=O)C3=O)ccc1OCC(=O)O`, in [1], the solubility entry was “soluble”. The half-inhibitory concentration (IC50) in data set [2], in data set [3], in data set [4], in data set [5], in data set [6] and in data set [7] was greater than 20 µM in each case. In addition, the IC50 in data set [8] is greater than 20 µM.

`CC(C)=CCC/C(C)=C/C[C@@H]1C[C@]2(CC=C(C)C)C(=O)[C@@](CC=C(C)C)(C(=O)C3=C2OC2C=C(O)C(=O)C=C2C3=O)[C@@]1(C)CCC=C(C)C` (some centres not stated): the IC50 in data set [2] is 14.3 µM; in data set [3], 9.88 µM; in [4], greater than 20 µM; in data set [5], 7.84 µM; in data set [6], 13.1 µM; in data set [7], 10.3 µM. Besides, in [8], the IC50 is 16.9 µM. Besides, the result in [10] was Active.

For `CC(C)=CCC/C(C)=C/C[C@@H]1C[C@]2(CC=C(C)C)C(=O)[C@@](CC=C(C)C)(C(=O)C(C(=O)c3ccc(OCC(=O)O)c(OCC(=O)O)c3)=C2O)[C@@]1(C)CCC=C(C)C`, the solubility entry in data set [1] is reported as “soluble”. Besides, the IC50 in [2], in data set [3], in data set [4], in data set [5], in data set [6] and in data set [7] was greater than 20 µM each time. For the same compound, the IC50 in [8] is greater than 20 µM.

Values taken from ChEMBL document CHEMBL3826938, “Synthesis and biological evaluation of Oblongifolin C derivatives as c-Met inhibitors” (Bioorg Med Chem, 2016).
